# System: Male Wistar rats
# Assay: Refeeding after 24 h fast, subcutaneous injection, sham operated or AP-SFO lesioned rats
# Format: in vivo, rat
# Method: Male Wistar rats were either sham operated or subjected to electrolytic lesions of the AP, SFO or both. Two weeks were allowed for recovery after surgeries while body weight, food and water intake were measured daily. Then rats, which were fasted for 24 hours, were subcutaneously injected with anorexigenic doses of PYY-HAS, PYY or saline (for controls) following which free access to food was reallowed. Food and water intake were measured for 24 hours following drug injections. […] However, the anorexigenic effect of both peptides was delayed in AP-SFO-lesioned rats, 1 hour in PYY treated rats and 2 hours in PYY-HAS treated rats.
substance,measurement,setting,value
PYY,delay of anorexigenic effect in AP-SFO-lesioned rats,AP-SFO-lesioned rats,1 h
same,body weight gain after food deprivation,after 24 hours fast,did not
same,persistence of anorexigenic effect during refeeding,after 24 hours fast,only during the first two hours of refeeding
same,time of maximum anorexigenic effect,after 24 hours fast,1 h

# From patent US20090099074A1, “MODULATING FOOD INTAKE” (CONJUCHEM BIOTECHNOLOGIES INC., priority 2007, published 2009)
